Assay results as given in article PMC7144376, “Antiviral Effects of Novel 2-Benzoxyl-Phenylpyridine Derivatives” (Molecules, 2020).
Like-named read-outs stand apart in the source and are kept apart here.

Experiments:
[1] = test system: CVB3; test: Time of (drug) addition experiment; format: cell-based, Coxsackievirus B3; settings: compound present −1–10, 0–10 or 2–10 h; yield at 12 h pi; 120 μM W-9, 160 μM W-13, W-15, ribavirin
Procedure: To further elucidate the mechanisms underlying the activities of W9, W13, and W15 against CVB3 propagation in cells, we conducted a time-of-addition experiment. Briefly, 120 μM W-9, or 160 μM W-13, W-15 or ribavirin, were added to Hep-2 cells at different time periods following CVB3 infection and progeny virus yield was determined at 12 h post-infection (pi). […] In contrast, when compounds were added during the 4–10 h stage after viral infection, production of viral progeny increased somewhat, however, compared with the virus control group, the inhibition effect was still clear. Drug treatments during other periods following CVB3 infection led to a gradual increase in viral yields, reflecting a loss of antiviral effects.
Figure 4 Time-of-addition assay. 120 μM W-9, or 160 μM W-13, W-15, or ribavirin, were added to Hep-2 cells for different time periods after CVB3 infection. Progeny virus yield was determined at 12 h post-infection ((−1)–0 h, viral infection period; 0–10 h, period of virus proliferation in cells). Values are presented as means ± SDs. * p < 0.05; ** p < 0.01, compared with the virus control group.
Hep-2 cells were infected with 100 TCID50 of CVB3 and then 120 μM W-9, 160 μM W-13, 160 μM W-15, or 160 μM ribavirin were added for different time periods (−1–0, 0–10, 2–10, 4–10, 6–10, 8–10, or −1–10 h pi, where –1–0 h is the viral infection period and 0–10 h is the period of virus proliferation in the cells). Cells and culture supernatants were harvested at 12 h pi and subjected to three freeze-thaw cycles, after which virus titers were determined by the Reed–Muench method.

[2] = test system: ADV7; test: Inhibition of ADV7-induced cytopathic effects in HeLa cells (MTT); format: cell-based, adenovirus type 7; settings: for protection against ADV7-induced CPEs (microscopy): 120 μM W-9, 160 μM W-13, 160 μM W-15; for EC50 / inhibition at 160 µM: Human mastadenovirus B; for EC50: 100 TCID50 ADV7, 48 h, MTT, read-out: EC50 (50% protection from virus-induced cytopathogenicity), ADV7; for inhibition at 160 µM: read-out: inhibition of ADV7 infections
Procedure: Figure 1 Antiviral activities of novel 2-benzoxyl-phenylpyridine derivatives against CVB3 and ADV7. […] Hep-2 or HeLa cells were infected with 100 TCID50 of CVB3 or ADV7 for 1.5 h at 37 °C. Then, the inocula were aspirated and the cells were incubated with various concentrations of test compounds for 48 h. Cell viability was determined using the MTT assay. (b) Images showing the morphology of Hep-2 and HeLa cells treated with 120 μM W-9, 160 μM W-13, or 160 μM W-15 (magnification, 20×).
(§1) The antiviral activities of compounds against CVB3 and ADV7 were determined by measuring their inhibition of virus-induced CPEs in acutely infected Hep-2 and HeLa cells, respectively. Confluent cell monolayers in 96-well plates were infected with 100 TCID50 of CVB3 or ADV7 for 1.5 h at 37 °C, inocula were aspirated, and the cells then were incubated with various concentrations of compounds at 37 °C, 5% CO2, for 48 h. CPEs were observed by microscopy and the viability of cells was determined using MTT assays. The concentrations of test compounds required to achieve 50% protection from virus-induced cytopathogenicity (EC50 values) were determined. Adverse effects of tested compounds on host cells were also assessed using the MTT method after exposing uninfected cells to various concentrations of test compounds for 48 h at 37 °C. The CC50 values of compounds were calculated using SPSS software and selectivity indices were the ratio of CC50:EC50. Each experiment was performed in triplicate and at least three times, independently.

[3] = Cytotoxicity on uninfected Hep-2 cells (MTT, 48 h); format: cell-based; settings: human, read-out: CC50 (reduce cell viability by 50%), CVB3 host cells
Procedure: Human laryngeal carcinoma cells (Hep-2) and human cervical carcinoma cells (HeLa) were maintained in DMEM (Gibco) supplemented with 10% fetal bovine serum (FBS; Gibco), 100 U/mL penicillin and streptomycin, and 2 mM L-glutamine.
as §1

[4] = test system: ADV7; test: ADV7 progeny virus yield in HeLa cells (TCID50 titration); format: cell-based, adenovirus type 7; settings: 36 h, 120 μM W-9, 160 μM W-13, 160 μM W-15, 160 μM ribavirin
Procedure: Based on their antiviral activities and therapeutic selectivity indices, the effects on virus progeny yields of compounds W9, W13, and W15 were further investigated, using ribavirin as a positive control drug. To this end, confluent monolayers of Hep-2 or HeLa cells in 96-well plates were infected with 100 × median tissue culture infective dose (TCID50) of CVB3 or ADV7, then treated with 120 μM W-9, 160 μM W-13, 160 μM W-15, or 160 μM ribavirin. After 36 h, culture media and cell lysates were collected, following freeze-thaw cycles, and then subjected to virus titration.
Figure 2 The effects of W9, W13, and W15 on progeny virus production. Hep-2 cells infected with 100 TCID50 of CVB3 (a), or HeLa cells infected with 100 TCID50 of ADV7(b), were incubated in the absence (virus control) or presence of 120 μM W-9, 160 μM W-13, 160 μM W-15, or 160 μM ribavirin for 36 h, and the culture media and cell lysates then harvested for virus titration. Viral titers are presented as Log10 TCID50/mL. * p < 0.05; ** p < 0.01, compared with the virus control group.
CVB3 or ADV7 suspensions, serially diluted 10-fold with DMEM containing 2% FBS (DMEM maintenance medium, MM), were inoculated to Hep-2 or HeLa cells in 96-well plates. After 1.5 h incubation at 37 °C in 5% CO2, unbound virus was washed out and the MM was added to the cells. After 2 days, infected cells were monitored for CPEs and virus titers were calculated using the Reed–Muench method.

Compound	progeny virus titer in time-of-addition assay [1]	SI (CC50/EC50), ADV7 [2]	inhibitory activity against ADV7 infection (in words) [2]	protection against ADV7-induced CPEs (microscopy) [2]	EC50 [2] [µM]	inhibition at 160 µM [2] [%]	SI (CC50/EC50), ADV7 ([2]; listed as W-13)	CC50 at 48 h [3] [µM]	reduction in ADV7 virus progeny titer relative to untreated control [4]	maximum inhibition of ADV7 [2] [%]
Cc1ccc(OC(=O)C(C)(C)C)c(-c2ccccn2)c1 [W13]	progeny virus titers were reduced	>10	significant inhibitory activities	almost complete protection	36.4 ± 16.4	83.9	> 10	424 ± 26.8	approximately 2.0 log	–
CC(=O)Oc1ccc(-c2ccccn2)c(OC(=O)c2ccccc2)c1 [W15]	progeny virus titers were reduced	12.2	significant inhibitory activities	almost complete protection	65.2 ± 21.6	89.4	–	451 ± 32.4	approximately 2.0 log	–
O=C(Oc1cc(Cl)ccc1-c1ccccn1)c1ccccc1 [W9]	progeny virus titers were reduced	9.8	significant inhibitory activities	almost complete protection	27.1 ± 9	81.4	–	148 ± 11.6	approximately 2.0 log	–
NC(=O)c1ncn([C@@H]2O[C@H](CO)[C@@H](O)[C@H]2O)n1 [Ribavirin, reference compound]	very similar effects	7.1	–	–	114	–	–	836	~1.7 log	72.4
